Patent US5140009A (Tap Pharmaceuticals, Inc., priority 1990, dated 1992)
Where two headings read alike, the source gives them in different places. Numbered stars: 1 amine (or outer) side, 2 acyl side, 3 side chain; on linkers, the order of the positions; unused ones are H or OH. Square brackets hold non-standard residues; d marks the D form. Peptide text beside a SMILES is read from it. * marks the point of attachment. Propanoyl(3-indol-3-yl) = O=C(CCc1c[nH]c2ccccc12)*; Propanoyl(3-(4-F-phenyl)) = O=C(CCc1ccc(F)cc1)*; Acetyl(1-naphthyl) = O=C(Cc1cccc2ccccc12)*; 1Nal = N[C@@H](Cc1cccc2ccccc12)C(=O)O; Desaminohistidyl = O=C(CCc1c[nH]cn1)*; d1Nal = N[C@H](Cc1cccc2ccccc12)C(=O)O; d2Nal = N[C@H](Cc1ccc2ccccc2c1)C(=O)O; Lys(iPr) = CC(C)NCCCC[C@H](N)C(=O)O; NMeY = CN[C@@H](Cc1ccc(O)cc1)C(=O)O; dBta = N[C@H](Cc1csc2ccccc12)C(=O)O; NMeF = CN[C@@H](Cc1ccccc1)C(=O)O; Nicotinoyl = O=C(c1cccnc1)*; dOrn = NCCC[C@@H](N)C(=O)O; NMeS = CN[C@@H](CO)C(=O)O; Morpholide = C1CN(*)CCO1; PhAc = O=C(Cc1ccccc1)*; CO = O=C([*:1])[*:2]; Bn = c1ccc(C*)cc1

Target: T1, LHRH receptors (Rattus norvegicus, UniProt P30969)
T1 construct: Pituitary membranes containing LHRH receptors are prepared in batches from quick-frozen rat pituitaries; tissue Hilltop Labs; host or cells: rat pituitary membranes
T1 sequence (P30969 1-327): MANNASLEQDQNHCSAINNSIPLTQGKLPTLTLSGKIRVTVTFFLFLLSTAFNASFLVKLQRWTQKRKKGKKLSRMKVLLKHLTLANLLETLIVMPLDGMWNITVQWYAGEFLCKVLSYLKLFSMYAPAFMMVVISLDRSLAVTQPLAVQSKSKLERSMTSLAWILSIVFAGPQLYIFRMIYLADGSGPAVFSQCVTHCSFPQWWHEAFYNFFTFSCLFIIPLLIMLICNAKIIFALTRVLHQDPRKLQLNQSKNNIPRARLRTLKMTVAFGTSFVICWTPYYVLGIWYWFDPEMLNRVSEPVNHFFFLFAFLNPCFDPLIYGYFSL
Experiment: Receptor Binding (radioligand receptor binding assay)
Conditions: rat pituitary membranes, 2 hours at 4° C., read-out: Receptor Binding pkI (converted)

[1] = table 3, radioiodinated [D-Leu^6 -des Gly^10 ]-LHRH ethyl amide 50 pM

Row | SMILES | Ki [1] [nM] | Ki (table 4, radioligand 50 pM) [nM]
1 | CCNC(=O)[C@@H]1CCCN1C(=O)[C@H](CCCNC(=N)N)NC(=O)[C@H](CC(C)C)NC(=O)[C@@H](Cc1c[nH]c2ccccc12)NC(=O)[C@H](Cc1ccc(O)cc1)NC(=O)[C@H](CO)NC(=O)[C@H](Cc1c[nH]c2ccccc12)NC(=O)CCc1c[nH]cn1 [Compound 61, N-[3-(4-Imidazolyl)propionyl]-Trp-Ser-Tyr-D-Trp-Leu-Arg-ProNHEt] (Desaminohistidyl-WSY[dW]LRP-NHEt) | 0.427 | 
2 | CC(C)C[C@H](NC(=O)[C@@H](Cc1c[nH]c2ccccc12)NC(=O)[C@H](Cc1ccc(O)cc1)N(C)C(=O)[C@H](CO)NC(=O)[C@@H](Cc1c[nH]c2ccccc12)NC(=O)[C@H](Cc1cccc2ccccc12)NC(=O)N1CCOCC1)C(=O)N[C@@H](CCCNC(=N)N)C(=O)N1CCC[C@H]1C(=O)N[C@H](C)C(N)=O [Compound 221, (2-10)[N-(alpha-Morpholinocarbonyl)-1-Nal^2 -D-Trp^3,6 -NMeTyr^5 -D-Ala^10]LHRH] ({Morpholide-CO}-[1Nal][dW]S[NMeY][dW]LRP[dA]-NH2) |  | 0.204
3 | CCNC(=O)[C@@H]1CCCN1C(=O)[C@H](CCCNC(=N)N)NC(=O)[C@H](CC(C)C)NC(=O)[C@@H](CCCN)NC(=O)[C@H](Cc1ccc(O)cc1)NC(=O)[C@H](CO)NC(=O)CCc1c[nH]c2ccccc12 [Compound 49, (4-9) [N-(3-(3-indole)propionyl)-Ser^4 -D-Orn^6 -Pro^9 NHEt]LHRH] ({Propanoyl(3-indol-3-yl)}-SY[dOrn]LRP-NHEt) | 55 | 
4 | CCNC(=O)[C@@H]1CCCN1C(=O)[C@H](CCCNC(=N)N)NC(=O)[C@H](CC(C)C)NC(=O)[C@@H](CCCNC(=N)N)NC(=O)[C@H](Cc1ccc(O)cc1)NC(=O)[C@H](COCc1ccccc1)NC(=O)Cc1cccc2ccccc12 [Compound 38, (4-9)[N-(1-Naphthylacetyl)-Ser^4 (OBzl)-D-Arg^6 -Pro^9 -NHEt]LHRH] ({Acetyl(1-naphthyl)}-S(Bn)Y[dR]LRP-NHEt) | 28.8 | 
5 | CC(C)C[C@H](NC(=O)[C@@H](CCCCNC(=O)c1cccnc1)NC(=O)[C@H](Cc1ccc(O)cc1)N(C)C(=O)[C@H](CO)NC(=O)[C@@H](Cc1csc2ccccc12)NC(=O)CCc1ccc(F)cc1)C(=O)N[C@@H](CCCCNC(C)C)C(=O)N1CCC[C@H]1C(=O)N[C@H](C)C(N)=O [Compound 253, (3-10)[N-(3-(4-Fluorophenyl)propionyl)-D-3-Bal^3 -NMeTyr^5 -D-Lys^6 (N-epsilon-nicotinyl)-Lys^8 (N-epsilon-isopropyl)-D-Ala^10]LHRH] ({Propanoyl(3-(4-F-phenyl))}-[dBta]S[NMeY][dK](Nicotinoyl)L[Lys(iPr)]P[dA]-NH2) |  | 0.00933
6 | CC(C)C[C@H](NC(=O)[C@@H](CCCCN)NC(=O)[C@H](Cc1ccccc1)N(C)C(=O)[C@H](CO)NC(=O)[C@@H](Cc1cccc2ccccc12)NC(=O)CCc1ccc(F)cc1)C(=O)N[C@@H](CCCNC(=N)N)C(=O)N1CCC[C@H]1C(=O)N[C@H](C)C(N)=O [Compound 189, (3-10)[N-(3-(4-Fluorophenyl)propionyl)-D-1-Nal^3 -NMePhe^5 -D-Lys^6 -D-Ala^10]LHRH] ({Propanoyl(3-(4-F-phenyl))}-[d1Nal]S[NMeF][dK]LRP[dA]-NH2) |  | 0.0055
7 | CCNC(=O)[C@@H]1CCCN1C(=O)[C@H](CCCNC(=N)N)NC(=O)[C@H](CC(C)C)NC(=O)[C@@H](Cc1c[nH]c2ccccc12)NC(=O)[C@H](Cc1ccc(O)cc1)NC(=O)[C@H](CO)NC(=O)Cc1ccccc1 [Compound 17, (4-9)[N-(Phenylacetyl)-Ser^4 -D-Trp^6 -Pro^9-NHEt] LHRH] (PhAc-SY[dW]LRP-NHEt) | 6.61 | 
8 | CCNC(=O)[C@@H]1CCCN1C(=O)[C@H](CCCNC(=N)N)NC(=O)[C@H](CC(C)C)NC(=O)[C@@H](Cc1c[nH]c2ccccc12)NC(=O)[C@H](Cc1ccc(O)cc1)NC(=O)[C@H](CO)NC(=O)[C@H](Cc1ccc(O)cc1)N(C)C(=O)[C@H](Cc1ccccc1)NC(=O)N1CCOCC1 [Compound 116, (2-9)[N-(N-alpha-Morpholinocarbonyl)-Phe^2 -N-Me-Tyr^3 -D-Trp^6-Pro^9 NHEt]LHRH] ({Morpholide-CO}-F[NMeY]SY[dW]LRP-NHEt) | 5.01 | 
9 | CC(C)C[C@H](NC(=O)[C@@H](Cc1ccc(O)cc1)NC(=O)[C@H](Cc1ccc(O)cc1)N(C)C(=O)[C@H](CO)NC(=O)[C@@H](Cc1c[nH]c2ccccc12)NC(=O)CCc1ccc(F)cc1)C(=O)N[C@@H](CCCCNC(C)C)C(=O)N1CCC[C@H]1C(=O)N[C@H](C)C(N)=O [Compound 196, (3-10)[N-(3-(4-Fluorophenyl)propionyl)-D-Trp^3 -NMeTyr^5 -D-Tyr^6 -Lys^8 (N-epsilon-isopropyl)-D-Ala^10]LHRH] ({Propanoyl(3-(4-F-phenyl))}-[dW]S[NMeY][dY]L[Lys(iPr)]P[dA]-NH2) |  | 0.0234

Now from value to compound:

Row | Ki [1] [nM] | Ki (table 4, radioligand 50 pM) [nM] | SMILES
10 | 0.257 |  | CCNC(=O)[C@@H]1CCCN1C(=O)[C@H](CCCNC(=N)N)NC(=O)[C@H](CC(C)C)NC(=O)[C@@H](Cc1c[nH]c2ccccc12)NC(=O)[C@H](Cc1ccc(O)cc1)NC(=O)[C@H](CO)NC(=O)[C@@H](Cc1c[nH]c2ccccc12)NC(=O)[C@H](Cc1ccccc1)NC(=O)N1CCOCC1 [Compound 107, (2 9)[N-(N-alpha-Morpholinocarbonyl)-Phe^2 -D-Trp^3,6 -Pro^9 NHEt]LHRH] ({Morpholide-CO}-F[dW]SY[dW]LRP-NHEt)
11 |  | 0.251 | CCNC(=O)N[C@@H](Cc1ccccc1)C(=O)N[C@H](Cc1cccc2ccccc12)C(=O)N[C@@H](CO)C(=O)N[C@@H](Cc1ccc(O)cc1)C(=O)N[C@H](Cc1c[nH]c2ccccc12)C(=O)N[C@@H](CC(C)C)C(=O)N[C@@H](CCCNC(=N)N)C(=O)N1CCC[C@H]1C(=O)NCC [Compound 238, (2-9)[N-(alpha-Ethylaminocarbonyl)-Phe^2 -D-1-Nal^3 -D-Trp^6 -Pro^9 NHEt]LHRH] ({NHEt-CO}-F[d1Nal]SY[dW]LRP-NHEt)
12 | 2.24 |  | CCNC(=O)[C@@H]1CCCN1C(=O)[C@H](CCCNC(=N)N)NC(=O)[C@H](CC(C)C)NC(=O)[C@@H](Cc1c[nH]c2ccccc12)NC(=O)[C@H](Cc1ccc(O)cc1)NC(=O)[C@H](CO)N(C)C(=O)[C@H](Cc1c[nH]c2ccccc12)NC(=O)[C@H](Cc1ccccc1)NC(=O)N1CCOCC1 [Compound 115, (2-9)[N-(N-alpha-Morpholinocarbonyl)-Phe^2 -N-Me-Ser^4 -D-Trp^6-Pro^9 -NHEt]LHRH] ({Morpholide-CO}-FW[NMeS]Y[dW]LRP-NHEt)
13 | 2.75 |  | CCNC(=O)[C@@H]1CCCN1C(=O)[C@H](CCCNC(=N)N)NC(=O)[C@H](CC(C)C)NC(=O)[C@@H](Cc1c[nH]c2ccccc12)NC(=O)[C@H](Cc1ccc(O)cc1)NC(=O)[C@H](CO)NC(=O)[C@H](Cc1c[nH]c2ccccc12)NC(=O)[C@@H](Cc1ccc2ccccc2c1)NC(=O)N1CCOCC1 [Compound 111, (2-9)[N-(N-alpha-Morpholinocarbonyl)-D-2-Nal^2 -D-Trp^6 -Pro^9 NHEt]LHRH] ({Morpholide-CO}-[d2Nal]WSY[dW]LRP-NHEt)
14 | 0.0794 |  | CCNC(=O)[C@@H]1CCCN1C(=O)[C@H](CCCNC(=N)N)NC(=O)[C@H](CC(C)C)NC(=O)[C@@H](Cc1c[nH]c2ccccc12)NC(=O)[C@H](Cc1ccc(O)cc1)NC(=O)[C@H](CO)NC(=O)[C@@H](Cc1c[nH]c2ccccc12)NC(=O)CCc1c[nH]c2ccccc12 [Compound 103, (3-9)[N-(3-Indolepropionyl)-D-Trp^3,6 -Pro^9 -NHEt]LHRH] ({Propanoyl(3-indol-3-yl)}-[dW]SY[dW]LRP-NHEt)
